This note sets out measurements from US9708336B2, “Metallo-beta-lactamase inhibitors” (priority 2014, dated 2017).

As a reminder, the IC50 is the midpoint of a concentration-inhibition curve.

Like-named read-outs stand apart in the source and are kept apart here.

One assay concerns the target NDM-1 (Klebsiella pneumoniae, UniProt C7C422). Kind of assay: biochemical. In kind it is biochemical. As to conditions: NDM-1 enzyme, CCF2-FA substrate; read-out: NDM-1 IC50.
A further assay has as its target IMP-1 (Serratia marcescens, UniProt P52699). Kind of assay: biochemical. In kind it is biochemical. As to conditions: IMP-1 enzyme, CCF2-FA substrate; read-out: IMP-1 IC50.
Another assay deals with VIM-1 (Pseudomonas aeruginosa (strain ATCC 15692 / DSM 22644 / CIP 104116 / JCM 14847 / LMG 12228 / 1C / PRS 101 / PAO1), UniProt A0A0F7KYQ8). The assay can be described thus: Enzyme activity: determination of IC50, fluorescence assay with CCF2-FA substrate (VIM-1). In kind it is biochemical. As to conditions: CCF2-FA substrate.
The test system of assay [1] is Escherichia coli expressing NDM-1 (CLB30016). Kind of assay: Antibiotic potentiation activity: synergistic concentration (MITC95) with imipenem, OD600 growth. In kind it is cell-based. As to conditions: (CLB30016, NDM-1), 95% growth inhibition. The gist of the method: (§1)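 In 1.1× CAMHB, clinical isolates from overnight plates were challenged with test compound alongside imipenem at an assay concentration of 4 μg/ml, sometimes 1 μg/ml. Plates sat covered at 35 °C for 22–24 h prior to spectrophotometric reading.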

Assay [2] concerns Klebsiella pneumoniae expressing VIM-1 (IHMA599644). Described as above. As to conditions: Klebsiella pneumoniae IHMA599644 (VIM-1), 95% growth inhibition. In kind it is cell-based. The gist of the method: as §1
The subject of assay [3] is Serratia marcescens expressing IMP-1 (CL5741). Described as above. As to conditions: Serratia marcescens CL5741 (IMP-1), 95% growth inhibition. In kind it is cell-based. The gist of the method: as §1
[4] abbreviates: VIM-1 enzyme, read-out: VIM-1 IC50.

Sequence of NDM-1 (C7C422 whole entry, looked up, species assumed): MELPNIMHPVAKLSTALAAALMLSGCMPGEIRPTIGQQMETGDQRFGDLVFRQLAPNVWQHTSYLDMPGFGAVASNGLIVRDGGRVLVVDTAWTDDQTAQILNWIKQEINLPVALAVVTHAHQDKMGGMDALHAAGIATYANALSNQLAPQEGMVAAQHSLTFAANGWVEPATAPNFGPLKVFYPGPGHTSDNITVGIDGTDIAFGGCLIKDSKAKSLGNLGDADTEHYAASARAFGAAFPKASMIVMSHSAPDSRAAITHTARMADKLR
Sequence of IMP-1 (P52699 whole entry, looked up): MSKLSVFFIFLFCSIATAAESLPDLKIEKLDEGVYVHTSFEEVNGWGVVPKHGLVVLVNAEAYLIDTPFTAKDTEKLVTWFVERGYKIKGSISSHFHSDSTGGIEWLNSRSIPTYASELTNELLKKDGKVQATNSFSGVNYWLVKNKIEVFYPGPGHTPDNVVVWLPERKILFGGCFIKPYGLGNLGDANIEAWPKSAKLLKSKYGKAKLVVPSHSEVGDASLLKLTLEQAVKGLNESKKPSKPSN

Take `CC1(O)CN(c2ccc(-c3cccc(S(N)(=O)=O)c3-c3nnn[nH]3)cn2)C1` [Example 635, 3-[6-(3-hydroxy-3-methyl-azetidin-1-yl)-3-pyridyl]-2-(1H-tetrazol-5-yl)benzenesulfonamide]: the IC50 amounted to 0.00492 µM on NDM-1, 0.0915 µM at IMP-1 and 0.258 µM at VIM-1 (setting [4]). The “Escherichia coli MITC95” value in assay [1] is 2.148 µM. Besides, in assay [2], the “Klebsiella pneumoniae MITC95” value amounted to 112.5 µM. For the same molecule, the “Serratia marcescens MITC95” value in assay [3] was 7.813 µM.

`CNCCN(C)c1ccc(-c2cccc(S(N)(=O)=O)c2-c2nnn[nH]2)cn1` [Example 637, 3-[6-[methyl-[2-(methylamino)ethyl]amino]-3-pyridyl]-2-(1H-tetrazol-5-yl)benzenesulfonamide]: the IC50 at NDM-1 was 0.052 µM; at IMP-1, 0.925 µM; against VIM-1 (VIM-1 IC50, VIM-1 enzyme), 0.453 µM. The “Escherichia coli MITC95” value in assay [1] was 2.344 µM. Moreover, the “Klebsiella pneumoniae MITC95” value in assay [2] came to 50 µM. Further, the “Serratia marcescens MITC95” value in assay [3] was found to be 25 µM.

Regarding `NS(=O)(=O)c1cccc(-c2ccc(NCC3CCN3)nc2)c1-c1nnn[nH]1` (stereo not drawn) [Example 638, 3-[6-(azetidin-2-ylmethylamino)-3-pyridyl]-2-(1H-tetrazol-5-yl)benzenesulfonamide], the IC50 at NDM-1 stood at 0.055 µM; on IMP-1, 0.596 µM; on VIM-1 (VIM-1 IC50, VIM-1 enzyme) it was 0.181 µM. The “Escherichia coli MITC95” value in assay [1] stood at 0.7813 µM. The “Klebsiella pneumoniae MITC95” value in assay [2] came out at 12.5 µM. In addition, in assay [3], the “Serratia marcescens MITC95” value was 12.5 µM.

For the molecule `NCCNc1nc2c(-c3cccc(S(N)(=O)=O)c3-c3nn[nH]n3)cccc2s1` [Example 639, 3-[2-(2-aminoethylamino)-1,3-benzothiazol-4-yl]-2-(2H-tetrazol-5-yl)benzenesulfonamide], the results for the IC50 on NDM-1, on IMP-1 and at VIM-1 (setting [4]) were 0.00198 µM, 0.187 µM and 0.0105 µM, respectively. Further, in assay [1], the “Escherichia coli MITC95” value came to 1.563 µM. The “Klebsiella pneumoniae MITC95” value in assay [2] stood at 6.25 µM. Further, in assay [3], the “Serratia marcescens MITC95” value is 25 µM.

For the molecule `CN(C)CCNc1nc2c(-c3cccc(S(N)(=O)=O)c3-c3nn[nH]n3)cccc2s1` [Example 640, 3-[2-[2-(dimethylamino)ethylami-no]-1,3-benzothiazol-4-yl]-2-(2H-tetrazol-5-yl)benzenesulfonamide], the results for the IC50 at NDM-1, at IMP-1 and on VIM-1 (setting [4]) were 0.000855 µM, 0.194 µM and 0.00984 µM, respectively. For the same molecule, the “Escherichia coli MITC95” value in assay [1] worked out at 1.563 µM. For the same molecule, in assay [2], the “Klebsiella pneumoniae MITC95” value was found to be 100 µM. Moreover, in assay [3], the “Serratia marcescens MITC95” value stood at 100 µM.

As to `NS(=O)(=O)c1cccc(-c2cccc3sc(N[C@H]4CC[C@H](N)CC4)nc23)c1-c1nnn[nH]1` [Example 641, 3-[2-[(4-aminocyclohexyl)amino]-1,3-benzothiazol-4-yl]-2-(1H-tetrazol-5-yl)benzenesulfonamide], the results for the IC50 at NDM-1, at IMP-1 and on VIM-1 (setting [4]) were 0.00102 µM, 0.0265 µM and 0.00446 µM, respectively. For the same molecule, in assay [1], the “Escherichia coli MITC95” value stood at 6.25 µM. In assay [2], the “Klebsiella pneumoniae MITC95” value was 25 µM. For the same molecule, in assay [3], the “Serratia marcescens MITC95” value was found to be 25 µM.

On to `NCCCCNc1nc2c(-c3cccc(S(N)(=O)=O)c3-c3nnn[nH]3)cccc2s1` [Example 642, 3-[2-(4-aminobutylamino)-1,3-benzothiazol-4-yl]-2-(1H-tetrazol-5-yl)benzenesulfonamide], for which the IC50 was found to be 0.00101 µM at NDM-1, 0.0519 µM on IMP-1 and 0.009 µM on VIM-1 (setting [4]). The “Escherichia coli MITC95” value in assay [1] came out at 1.563 µM. Moreover, the “Klebsiella pneumoniae MITC95” value in assay [2] was 50 µM. Also, the “Serratia marcescens MITC95” value in assay [3] is 25 µM.

With `NCCCNc1nc2c(-c3cccc(S(N)(=O)=O)c3-c3nnn[nH]3)cccc2s1` [Example 643, 3-[2-(3-aminopropylamino)-1,3-benzothiazol-4-yl]-2-(1H-tetrazol-5-yl)benzenesulfonamide], the IC50 came to 0.00234 µM at NDM-1, 0.101 µM at IMP-1 and 0.0123 µM on VIM-1 (setting [4]). Also, the “Escherichia coli MITC95” value in assay [1] was found to be 1.563 µM. For the same molecule, the “Klebsiella pneumoniae MITC95” value in assay [2] was found to be 25 µM. For the same molecule, in assay [3], the “Serratia marcescens MITC95” value turned out to be 25 µM.

In the case of `NCCCCCNc1nc2c(-c3cccc(S(N)(=O)=O)c3-c3nnn[nH]3)cccc2s1` [Example 644, 3-[2-(5-aminopentylamino)-1,3-benzothiazol-4-yl]-2-(1H-tetrazol-5-yl)benzenesulfonamide], the IC50 on NDM-1 was found to be 0.00134 µM; on IMP-1, 0.0324 µM; on VIM-1 (VIM-1 IC50, VIM-1 enzyme), 0.0138 µM. For the same molecule, the “Escherichia coli MITC95” value in assay [1] worked out at 4.688 µM. Moreover, the “Klebsiella pneumoniae MITC95” value in assay [2] was 75 µM. In assay [3], the “Serratia marcescens MITC95” value amounted to 37.5 µM.

For `CN(CCCCN)c1nc2c(-c3cccc(S(N)(=O)=O)c3-c3nnn[nH]3)cccc2s1` [Example 645, 3-[2-[4-aminobutyl(methyl)amino]-1,3-benzothiazol-4-yl]-2-(1H-tetrazol-5-yl)benzenesulfonamide], the IC50 at NDM-1 is 0.00116 µM; on IMP-1 it was 0.0888 µM; at VIM-1 (VIM-1 IC50, VIM-1 enzyme), 0.00529 µM. In addition, in assay [1], the “Escherichia coli MITC95” value was determined as 1.563 µM. Besides, the “Klebsiella pneumoniae MITC95” value in assay [2] was 50 µM. Further, in assay [3], the “Serratia marcescens MITC95” value came to 100 µM.

For `NS(=O)(=O)c1cccc(-c2cccc3sc(NC4CCN(CCF)CC4)nc23)c1-c1nnn[nH]1` [Example 646, 3-[2-[[1-(2-fluoroethyl)-4-piperidyl]amino]-1,3-benzothiazol-4-yl]-2-(1H-tetrazol-5-yl)benzenesulfonamide], the IC50 on NDM-1 is 0.000851 µM; on IMP-1, 0.0318 µM; on VIM-1 (VIM-1 IC50, VIM-1 enzyme), 0.0051 µM. In addition, in assay [1], the “Escherichia coli MITC95” value worked out at 3.125 µM. Moreover, the “Klebsiella pneumoniae MITC95” value in assay [2] came out at 100 µM. Besides, the “Serratia marcescens MITC95” value in assay [3] came to 50 µM.

In the case of `NS(=O)(=O)c1cccc(-c2cnc3ncccn23)c1-c1nnn[nH]1` [Example 647, 3-imidazo[1,2-a]pyrimidin-3-yl-2-(1H-tetrazol-5-yl)benzenesulfonamide], the IC50 worked out at 0.0141 µM on NDM-1, 0.618 µM on IMP-1 and 0.0839 µM at VIM-1 (setting [4]). In assay [1], the “Escherichia coli MITC95” value came out at 0.25 µM. Also, the “Klebsiella pneumoniae MITC95” value in assay [2] stood at 6.25 µM. Besides, the “Serratia marcescens MITC95” value in assay [3] turned out to be 18.75 µM.

As to `N#Cc1ccc2ncc(-c3cccc(S(N)(=O)=O)c3-c3nnn[nH]3)n2c1` [Example 648, 3-(6-cyanoimidazo[1,2-a]pyridin-3-yl)-2-(1H-tetrazol-5-yl)benzenesulfonamide], the values for the IC50 at NDM-1, on IMP-1 and at VIM-1 (setting [4]) were 0.00511 µM, 0.0957 µM and 0.0153 µM, respectively. Further, the “Escherichia coli MITC95” value in assay [1] is 1.563 µM. The “Klebsiella pneumoniae MITC95” value in assay [2] came out at 12.5 µM. The “Serratia marcescens MITC95” value in assay [3] came out at 6.25 µM.

Take `N#Cc1cccc2ncc(-c3cccc(S(N)(=O)=O)c3-c3nnn[nH]3)n12` [Example 649, 3-(5-cyanoimidazo[1,2-a]pyridin-3-yl)-2-(1H-tetrazol-5-yl)benzenesulfonamide]: the IC50 at NDM-1 is 0.00287 µM; on IMP-1, 0.0484 µM; at VIM-1 (setting [4]), 0.0128 µM. For the same molecule, in assay [1], the “Escherichia coli MITC95” value was found to be 2.344 µM. Besides, the “Klebsiella pneumoniae MITC95” value in assay [2] was found to be 12.5 µM. In assay [3], the “Serratia marcescens MITC95” value is 3.125 µM.
